Assay results as given in US20080045514A1 (Cytovia, Inc., priority 2006, published 2008).

Key:
Assay type in all cases: cell-based
[1] = tested on: human lymphoma cell line Raji; experiment: Inhibition of cell proliferation (GI50), Raji; conditions: Homo sapiens; Raji cells, 48 h, CellTiter-Glo
Summary of the method: (§1)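 Cells (4.4×10^4 cells/mL) exposed to compound at 1 nM to 10 μM final for 48 h at 37 °C, 5% CO2; growth read by CellTiter-Glo luminescence. Baseline luminescence taken after 0.5 h incubation. GI50 is the concentration where (Ltest−LStart)/(LMax−LStart)=0.5, LMax from untreated cells.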

[2] = tested on: human sarcoma cell line MES-SA; experiment: Inhibition of cell proliferation (GI50), MES-SA; conditions: MES-SA cells
Procedure: (§2) Human breast cancer cell lines T-47D, human hepatocellular carcinoma cell line SNU398, human colon carcinoma cell line HCT116, human lung cancer cell line H1299, human leukemia cell line K562, human lymphoma cell line Raji, human B cell lymphoblastoid cell line Ramos, and human Burkitt's lymphoma cell line Namalwa were grown and harvested as in Example 100. An aliquot of […] of cells (4.4×10^4 cells/mL) was added to a well of a 96-well microtiter plate containing 5 μL of a 10% DMSO in RPMI-1640 media solution containing 10 nM to 100 μM of 3-(2-chlorophenyl)-6-(3,4-methylenedioxyphenyl)-7H-[1,2,4]triazolo[3,4-b][1,3,4]thiadiazine (1 nM to 10 μM final). An aliquot of 45 μL of cells was added to a well of a 96-well microtiter plate containing 5 μL of a 10% DMSO in RPMI-1640 media solution without compound as the control sample for maximal cell proliferation (LMax). The samples were mixed by agitation and then incubated at 37° C. for 48 h in a 5% CO2-95% humidity incubator. After incubation, the samples were removed from the incubator and 25 μL of CellTiter-Glo™ reagent (Promega) was added. The samples were mixed by agitation and incubated at room temperature for 10-15 min. Plates were then read using a luminescent plate reader (Model SPECTRAfluor Plus, Tecan) to give Ltest values.
(§3) The samples were mixed by agitation and then incubated at 37° C. for 0.5 h in a 5% CO2-95% humidity incubator. After incubation, the samples were removed from the incubator and 25 μL of CellTiter-Glo™ reagent (Promega) was added. The samples were mixed by agitation and incubated at […] 10-15 min at room temperature in a 5% CO2-95% humidity incubator. Fluorescence was read as above, (LStart) defining luminescence for initial cell number used as baseline in GI50 determinations.
(§4) Calculation: GI50 (dose for 50% inhibition of cell proliferation) is the concentration where [(Ltest−LStart)/(LMax−LStart)]=0.5.
(§5) Several compounds were tested in human sarcoma cell line MES-SA and multi-drug resistant (MDR) human sarcoma cell line MES-SA/ADR, murine leukemia cell line P388 and multi-drug resistant (MDR) murine leukemia cell line P388/ADR, and the data are summarized in Table III.

[3] = tested on: human colon carcinoma cell line HCT116; experiment: Caspase cascade activation (EC50), HCT116; conditions: Homo sapiens, HCT-116; HCT116 cells; caspase cascade activation; read-out: caspase potency (EC50) HCT116
Summary of the method: (§6)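 Cells were resuspended at 0.65×10^6 cells/mL in medium + 10% FCS and exposed to test compound at 0.016 to 10 μM final for 48 h at 37 °C. Caspase activity was then read as fluorescence (ex 485/em 530 nm) from DEVD-R110 substrate with lysolecithin in PIPES pH 7.2, 3 h at room temperature.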

[4] = tested on: human B cell lymphoblastoid cell line Ramos; experiment: Caspase cascade activation (EC50), Ramos; conditions: Homo sapiens, RAMOS cells, read-out: caspase potency (EC50) RAMOS
Summary of the method: as §6

[5] = tested on: human Burkitt's lymphoma cell line Namalwa; experiment: Inhibition of cell proliferation (GI50), Namalwa; conditions: Homo sapiens, Burkitts lymphoma cell; Namalwa cells, 48 h, CellTiter-Glo
Summary of the method: as §1

[6] = tested on: human B cell lymphoblastoid cell line Ramos; experiment: Inhibition of cell proliferation (GI50), Ramos; conditions: Homo sapiens; Ramos cells, 48 h, CellTiter-Glo
Summary of the method: as §1

[7] = tested on: murine leukemia cell line P388; experiment: Inhibition of cell proliferation (GI50), P388; conditions: Mus musculus; P388 cells
Procedure: as §2, §3, §4, §5

[8] = tested on: multi-drug resistant (MDR) murine leukemia cell line P388/ADR; experiment: Inhibition of cell proliferation (GI50), P388/ADR; conditions: Mus musculus; P388/ADR multi-drug resistant cells
Procedure: as §2, §3, §4, §5

[9] = tested on: human hepatocellular carcinoma cell line SNU398; experiment: Caspase cascade activation (EC50), SNU398; conditions: Homo sapiens, SNU-398; SNU398 cells; caspase cascade activation; read-out: caspase potency (EC50) SNU398
Summary of the method: as §6

[10] = tested on: human Burkitt's lymphoma cell line Namalwa; experiment: Caspase cascade activation (EC50), Namalwa; conditions: Homo sapiens, Burkitts lymphoma cell; Namalwa cells; caspase cascade activation; read-out: caspase potency (EC50) Namalwa
Summary of the method: as §6

[11] = tested on: multi-drug resistant (MDR) human sarcoma cell line MES-SA/ADR; experiment: Inhibition of cell proliferation (GI50), MES-SA/ADR; conditions: MES-SA/ADR multi-drug resistant cells
Procedure: as §2, §3, §4, §5

[12] = tested on: human lymphoma cell line Raji; experiment: Caspase cascade activation (EC50), Raji; conditions: Homo sapiens, RAJI cells, read-out: caspase potency (EC50) RAJI
Summary of the method: as §6

[13] = tested on: human breast cancer cell line T-47D; experiment: Caspase cascade activation (EC50), T-47D; conditions: Homo sapiens; T47D cells; caspase cascade activation; read-out: caspase potency (EC50) T47D
Summary of the method: as §6

[14] = tested on: human leukemia cell line K562; experiment: Inhibition of cell proliferation (GI50), K562; conditions: Homo sapiens; K562 cells, 48 h, CellTiter-Glo
Summary of the method: as §1

[15] = tested on: human colon carcinoma cell line HCT116; experiment: Inhibition of cell proliferation (GI50), HCT116; conditions: Homo sapiens; HCT 116 cells, 48 h, CellTiter-Glo
Summary of the method: as §1

[16] = tested on: human breast cancer cell line T-47D; experiment: Inhibition of cell proliferation (GI50), T47D; conditions: Homo sapiens; T47D cells, 48 h, CellTiter-Glo
Summary of the method: as §1

[17] = tested on: human cancer cell line H1299; experiment: Caspase cascade activation (EC50), H1299; conditions: NCI-H1299, H1299 cells, read-out: caspase potency (EC50) H1299
Summary of the method: as §6

[18] = tested on: human lung cancer cell line H1299; experiment: Inhibition of cell proliferation (GI50), H1299; conditions: NCI-H1299, H1299 cells, 48 h, CellTiter-Glo
Procedure: as §2, §3, §4

[19] = tested on: human hepatocellular carcinoma cell line SNU398; experiment: Inhibition of cell proliferation (GI50), SNU398; conditions: Homo sapiens; SNU 398 cells, 48 h, CellTiter-Glo
Summary of the method: as §1

| GI50 [1] [nM] | GI50 [2] [nM] | EC50 [3] [nM] | EC50 [4] [nM] | GI50 [5] [nM] | GI50 [6] [nM] | GI50 [7] [nM] | GI50 [8] [nM] | EC50 [9] [nM] | EC50 [10] [nM] | GI50 [11] [nM] | EC50 [12] [nM] | EC50 [13] [nM] | GI50 [14] [nM] | GI50 [15] [nM] | GI50 [16] [nM] | EC50 [17] [nM] | GI50 [18] [nM] | GI50 [19] [nM] | SMILES |
| --- | --- | --- | --- | --- | --- | --- | --- | --- | --- | --- | --- | --- | --- | --- | --- | --- | --- | --- | --- |
| 53 | 59 | 139 | 89 | 20 | 11 | 20 | 29 | 141 | 117 | 154 | 112 | 508 | 27 | 190 | – | – | – | – | COc1cc(OC)cc(-c2nnc3n2N=C(c2ccc4c(c2)OCO4)CS3)c1 [Example 2, 3-(3,5-Dimethoxyphenyl)-6-(3,4-methylenedioxyphenyl)-7H-[1,2,4]triazolo[3,4-b][1,3,4]thiadiazine] |
| 26 | 30 | 61 | 31 | 31 | 12 | 12 | 16 | 47 | 36 | 28 | 32 | 168 | 24 | 150 | – | – | – | – | COc1cc(-c2nnc3n2N=C(c2ccc4c(c2)OCO4)CS3)cc(Cl)c1OC [Example 4, 3-(3-Chloro-4,5-dimethoxyphenyl)-6-(3,4-methylenedioxyphenyl)-7H-[1,2,4]triazolo[3,4-b][1,3,4]thiadiazine] |
| – | 44 | 154 | 32 | – | – | 23 | 25 | 36 | 36 | 63 | 49 | 517 | – | – | – | – | – | – | COc1ccc(C2=Nn3c(nnc3-c3cc(OC)c(OC)c(OC)c3)SC2)cc1 [Example A2, 3-(3,4,5-Trimethoxyphenyl)-6-(4-methoxyphenyl)-7H-[1,2,4]triazolo[3,4-b][1,3,4]thiadiazine] |
| 90 | – | 231 | 107 | 13 | 45 | – | – | 75 | 78 | – | 101 | 505 | 32 | 81 | 130 | 277 | 48 | 60 | COc1ccc(C2=Nn3c(nnc3-c3ccc(Cl)cc3Cl)SC2)cc1OC [Example G1, 3-(2,4-Dichlorophenyl)-6-(3,4-dimethoxyphenyl)-7H-[1,2,4]triazolo[3,4-b][1,3,4]thiadiazine] |
| 39 | – | 134 | 88 | 38 | 41 | – | – | 70 | 106 | – | 137 | 506 | 99 | 253 | 461 | 374 | 191 | – | COc1ccc(C2=Nn3c(nnc3-c3ccccc3OC)SC2)cc1OC [Example K1, 3-(2-Methoxyphenyl)-6-(3,4-dimethoxyphenyl)-7H-[1,2,4]triazolo[3,4-b][1,3,4]thiadiazine] |
| 150 | – | 178 | 130 | 243 | 76 | – | – | 132 | 122 | – | 180 | 499 | 163 | 200 | 200 | 573 | 339 | 147 | COc1ccc(C2=Nn3c(nnc3-c3cc(OC)c(OC)c(OC)c3)SC2)cc1OC [Example L1, 3-(3,4,5-Trimethoxyphenyl)-6-(3,4-dimethoxyphenyl)-7H-[1,2,4]triazolo[3,4-b][1,3,4]thiadiazine] |
| 2220 | – | 317 | 452 | 122 | 164 | – | – | 254 | 144 | – | 399 | 282 | 239 | 825 | 124 | 420 | 214 | – | Cc1ccccc1-c1nnc2n1N=C(c1ccc3c(c1)OCO3)CS2 [Example M, 3-(2-Methylphenyl)-6-(3,4-methylenedioxyphenyl)-7H-[1,2,4]triazolo[3,4-b][1,3,4]thiadiazine] |
| 426 | – | 231 | 289 | 472 | 118 | – | – | 189 | 123 | – | 339 | 235 | 214 | 884 | 175 | 370 | 202 | – | Clc1ccccc1-c1nnc2n1N=C(c1ccc3c(c1)OCO3)CS2 [Example P, 3-(2-chlorophenyl)-6-(3,4-methylenedioxyphenyl)-7H-[1,2,4]triazolo[3,4-b][1,3,4]thiadiazine] |
| 136 | – | 141 | 106 | 120 | 15 | – | – | 89 | 69 | – | 155 | 561 | 47 | 419 | 151 | 275 | 58 | – | CCOc1ccc(C2=Nn3c(nnc3-c3ccc(Cl)cc3)SC2)cc1 [F, 3-(4-Chlorophenyl)-6-(4-ethoxyphenyl)-7H-[1,2,4]triazolo[3,4-b][1,3,4]thiadiazine] |
| – | 83 | 111 | 75 | – | – | 31 | 43 | 68 | 61 | 123 | 81 | 62 | – | – | – | – | – | – | COc1ccccc1-c1nnc2n1N=C(c1ccc3c(c1)OCO3)CS2 [V, 3-(2-Methoxyphenyl)-6-(3,4-methylenedioxyphenyl)-7H-[1,2,4]triazolo[3,4-b][1,3,4]thiadiazine] |
